# Experimental data from paper PMC5880808, “A lever-like transduction pathway for long-distance chemical- and mechano-gating of the mechanosensitive Piezo1 channel” (Nature Communications, 2018).
# What was measured:
# [1] = target: T1, mPiezo1 L1342A/L1345A mutant (Mus musculus, UniProt E2JF22, L1342A/L1345A); experiment: Patch clamp (chemical-induced and stretch-induced currents), L1342A/L1345A mutant; format: cell-based; conditions: Piezo1-KO-HEK cells for chemical-induced currents
# T1 construct: The full-length mPiezo1 has 2547 amino acids in each monomer; expressed in transfected cells
# T1 sequence (E2JF22 whole entry L1342A/L1345A): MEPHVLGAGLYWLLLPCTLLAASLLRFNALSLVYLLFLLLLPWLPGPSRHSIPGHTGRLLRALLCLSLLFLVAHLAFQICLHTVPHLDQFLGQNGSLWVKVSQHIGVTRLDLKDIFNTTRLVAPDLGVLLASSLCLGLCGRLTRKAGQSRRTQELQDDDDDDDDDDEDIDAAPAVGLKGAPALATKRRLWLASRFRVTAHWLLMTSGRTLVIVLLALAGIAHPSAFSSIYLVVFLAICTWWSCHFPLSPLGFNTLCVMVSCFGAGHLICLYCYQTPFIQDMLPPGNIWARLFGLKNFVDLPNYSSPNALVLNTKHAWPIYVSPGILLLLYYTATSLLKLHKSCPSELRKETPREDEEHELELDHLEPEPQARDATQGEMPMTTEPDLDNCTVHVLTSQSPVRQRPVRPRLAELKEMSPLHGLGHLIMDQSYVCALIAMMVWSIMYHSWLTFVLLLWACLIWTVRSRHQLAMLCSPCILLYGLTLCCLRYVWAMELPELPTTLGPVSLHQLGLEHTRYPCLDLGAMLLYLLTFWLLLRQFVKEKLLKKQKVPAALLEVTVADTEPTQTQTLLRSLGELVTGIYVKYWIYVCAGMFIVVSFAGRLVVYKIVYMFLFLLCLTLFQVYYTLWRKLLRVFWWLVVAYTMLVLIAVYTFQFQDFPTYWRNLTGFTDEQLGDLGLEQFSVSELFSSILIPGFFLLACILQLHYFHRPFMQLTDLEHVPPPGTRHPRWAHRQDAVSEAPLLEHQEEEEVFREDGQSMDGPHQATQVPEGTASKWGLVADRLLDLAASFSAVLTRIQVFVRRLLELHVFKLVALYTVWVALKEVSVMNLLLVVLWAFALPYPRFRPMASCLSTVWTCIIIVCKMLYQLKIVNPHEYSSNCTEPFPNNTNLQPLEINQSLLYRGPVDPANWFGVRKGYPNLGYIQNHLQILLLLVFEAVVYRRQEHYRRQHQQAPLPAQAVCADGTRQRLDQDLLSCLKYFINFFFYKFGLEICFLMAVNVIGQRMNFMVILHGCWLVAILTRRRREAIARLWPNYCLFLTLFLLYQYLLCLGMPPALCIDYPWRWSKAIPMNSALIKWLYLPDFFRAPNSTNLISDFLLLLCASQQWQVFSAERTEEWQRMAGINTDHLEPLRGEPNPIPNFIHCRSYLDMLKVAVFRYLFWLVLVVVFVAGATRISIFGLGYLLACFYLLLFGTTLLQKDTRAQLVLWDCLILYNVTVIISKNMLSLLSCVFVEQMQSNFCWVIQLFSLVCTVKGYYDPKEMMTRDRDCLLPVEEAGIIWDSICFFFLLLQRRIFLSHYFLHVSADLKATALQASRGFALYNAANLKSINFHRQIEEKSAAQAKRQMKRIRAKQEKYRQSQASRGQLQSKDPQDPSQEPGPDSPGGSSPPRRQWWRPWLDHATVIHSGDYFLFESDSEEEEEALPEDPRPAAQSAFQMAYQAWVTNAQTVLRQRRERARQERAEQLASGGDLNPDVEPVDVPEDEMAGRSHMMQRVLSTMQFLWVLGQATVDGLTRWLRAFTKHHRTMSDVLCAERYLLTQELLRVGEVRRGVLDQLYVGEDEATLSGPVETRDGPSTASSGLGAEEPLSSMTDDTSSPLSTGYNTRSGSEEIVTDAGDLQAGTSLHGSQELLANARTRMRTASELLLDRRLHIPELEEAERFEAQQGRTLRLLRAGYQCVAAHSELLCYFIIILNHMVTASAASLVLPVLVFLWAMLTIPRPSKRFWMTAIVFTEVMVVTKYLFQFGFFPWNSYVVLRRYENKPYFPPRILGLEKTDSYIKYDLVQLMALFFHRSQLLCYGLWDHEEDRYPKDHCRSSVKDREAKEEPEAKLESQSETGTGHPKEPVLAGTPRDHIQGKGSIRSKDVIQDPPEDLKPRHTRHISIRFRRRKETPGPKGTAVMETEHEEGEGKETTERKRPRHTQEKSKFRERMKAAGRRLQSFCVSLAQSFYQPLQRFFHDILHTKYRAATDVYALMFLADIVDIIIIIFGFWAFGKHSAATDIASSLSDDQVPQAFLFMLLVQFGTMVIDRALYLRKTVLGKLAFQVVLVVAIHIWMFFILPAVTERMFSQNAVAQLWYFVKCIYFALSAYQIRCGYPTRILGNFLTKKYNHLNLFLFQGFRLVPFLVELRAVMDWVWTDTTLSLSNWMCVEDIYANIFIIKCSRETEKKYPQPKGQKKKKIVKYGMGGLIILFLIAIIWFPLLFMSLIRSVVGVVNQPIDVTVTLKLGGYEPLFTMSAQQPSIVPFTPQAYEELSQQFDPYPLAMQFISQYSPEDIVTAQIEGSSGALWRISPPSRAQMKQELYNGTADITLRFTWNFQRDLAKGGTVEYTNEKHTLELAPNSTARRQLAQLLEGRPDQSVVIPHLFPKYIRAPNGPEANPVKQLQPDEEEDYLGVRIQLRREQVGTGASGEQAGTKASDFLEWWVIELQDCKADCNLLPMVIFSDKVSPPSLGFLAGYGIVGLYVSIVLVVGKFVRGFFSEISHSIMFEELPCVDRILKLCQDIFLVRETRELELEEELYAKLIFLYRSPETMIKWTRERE
# Method: (§1) Protocols for HEK293T cell culture, transient transfection, and patch-clamp experiments with an Axopatch 200B amplifier (Axon Instruments) or HEKA EPC10 were essentially similar to how previously described[6],[8]. […] The extracellular solution was composed of (in mM) 133 NaCl, 3 KCl, 2.5 CaCl2, 1 MgCl2, 10 HEPES (pH 7.3 with NaOH), and 10 glucose. All experiments were carried out at room temperature. Currents were sampled at 20 kHz, filtered at 2 kHz using the Clampex 10.4 software (Axon Instruments) or Patchmaster software. Leak currents before mechanical stimulations were subtracted offline from the current traces.
# Stock solutions of Jedi1 (100 mM), Jedi2 (100 mM), and Yoda1 (30 mM) were solubilized in DMSO and diluted to the desired final concentrations as indicated in the figure legends using external or internal solutions. […] In other conditions, the compounds were directly added to the recording chamber or pipette solution, and the currents were recorded within 10 min. […]
# (§2) Stretch-activated currents were recorded in the cell-attached patch-clamp configuration as previously described. […] Stretch-activated channels were recorded at a holding potential of −80 mV with pressure steps from 0 to −100 mm Hg (−10 mm Hg increments), and 4–11 recording traces were averaged per cell for analysis. […]
# [2] = test system: mPiezo1 loop deletion mutants ΔL15-16 (657-677) and ΔL19-20 (870–921); experiment: Patch clamp (chemical-, poking- and stretching-induced currents), loop deletion mutants; format: cell-based, mouse
# Method: as §1
# Mechanical stimulation was delivered to the cell during the patch-clamp recording at an angle of 80° using a fire-polished glass pipette (tip diameter 3–4 μm) as previously described[5],[6]. […] A series of mechanical steps in 1 μm increments was applied every 20 s and currents were recorded at a holding potential of −70 mV. […] In the step-wise poking experiment, the patch was readily lost when the cell was broken at the end of the poking. […]
# as §2
# [3] = test system: mPiezo1 mutants L1342A/L1345A; L1342D/L1345D; L1342S/L1345S; L1342A; L1345A; experiment: Single-cell Ca2+ imaging or FLIPR, L1342/L1345 mutants; format: cell-based, mouse; conditions: all five mutants, 1 mM Jedi1, 30 μM Yoda1
# Method: HEK293T cells were grown in Dulbecco’s modified Eagle medium containing 4.5 mg/ml glucose, 10% fetal bovine serum, and 1% penicillin/streptomycin. Cells were seeded in 50 μg/ml poly-D-lysine-coated 96-well plates (3 × 10^4 cells/well) and allowed to grow for about 18 h, and then co-transfected with a total of 250 ng cDNA containing Piezo1 or Piezo2 and GCaMP6s using Lipofectamine 2000 (Invitrogen, Life Technology). Two days after transfection the cells were washed with buffer containing 1× Hanks’ balanced salt solution (HBSS; 1.3 mM Ca^2+) and 10 mM HEPES (pH 7.2). The 96-well plates were then transferred to the FLIPR Tetra (Molecular Device) for monitoring the GCAMP6s fluorescence before and after addition of the compounds that were prepared in separate compound plates. […]
# Fura-2 single-cell Ca^2+ imaging was performed according to the previous protocol. […] The coverslip was mounted into an inverted Nikon-Tie microscope equipped with a CoolSNAP charge-coupled devise (CCD) camera and Lambda XL light box (Sutter Instrument), and mCherry-positive and -negative cells were selected for measurement of the 340/380 ratio with a ×20 objective (numerical aperture 0.75) using the MetaFluor Fluorescence Ratio Imaging software (Molecular Device).
compound,measurement,setting,value
Cc1oc(-c2ccccc2)cc1C(=O)O [Jedi1],"inward currents, stretching-current relationship and P50 of the L1342A/L1345A mutant",[1],neither elicited inward currents
same,whole-cell currents or potentiation of poking- or stretching-induced currents in loop deletion mutants,[2]; ΔL15-16 and ΔL19-20 mutant-transfected cells,failed to elicit
same,compound-evoked Ca2+ responses of L1342/L1345 mutants,[3],completely lost
"Clc1cccc(Cl)c1CSc1nnc(-c2cnccn2)s1 [Yoda1, reference compound]","inward currents, stretching-current relationship and P50 of the L1342A/L1345A mutant",[1],neither elicited inward currents
same,potentiation of stretching-induced currents of loop deletion mutants,"[2]; ΔL15-16 and ΔL19-20, −80 mV",failed to potentiate
same,compound-evoked Ca2+ responses of L1342/L1345 mutants,[3],completely lost
